System: MV-4-11 cells
Assay: Gene expression microarray analysis (Affymetrix PrimeView) and GSEA
Assay type: cell-based, human
Design: RFU PODN (11730768_x_at) / Fold change /veh PODN (11730768_x_at) / RFU LINC00158 (11744669_a_at) / Fold change /veh LINC00158 (11744669_a_at) / RFU DUSP10 (11751237_a_at) / Fold change /veh DUSP10 (11751237_a_at) / RFU ID3 (11757404_x_at) / Fold change /veh ID3 (11757404_x_at) / RFU PLEKHG5 (11737974_s_at) / Fold change /veh PLEKHG5 (11737974_s_at) / RFU LRRC4B (11730491_at) / Fold change /veh LRRC4B (11730491_at) / RFU GIMAP4 (11747438_a_at) / Fold change /veh GIMAP4 (11747438_a_at) / RFU KRT8 (11758183_x_at) / Fold change /veh KRT8 (11758183_x_at) / RFU CNN1 (11734310_a_at) / Fold change /veh CNN1 (11734310_a_at) / RFU VPS37D (11726825_at) / Fold change /veh VPS37D (11726825_at) / RFU C10orf10 (11716522_x_at) / Fold change /veh C10orf10 (11716522_x_at) / RFU KIR2DL2 /// KIR2DL4 /// KIR2DL5A /// KIR2DL5B /// KIR2DS1 /// KIR2DS2 /// KIR2DS3 /// KIR2DS4 /// KIR3DL3 /// KIR3DL3 /// KIR3DS1 (11738374_at) / Fold change /veh KIR2DL2 /// KIR2DL4 /// KIR2DL5A /// KIR2DL5B /// KIR2DS1 /// KIR2DS2 /// KIR2DS3 /// KIR2DS4 /// KIR3DL3 /// KIR3DL3 /// KIR3DS1 (11738374_at) / RFU C1QL1 (11718748_at) / Fold change /veh C1QL1 (11718748_at) / RFU TMPRSS4 (11747572_a_at) / Fold change /veh TMPRSS4 (11747572_a_at) / RFU HAMP (11756126_x_at) / Fold change /veh HAMP (11756126_x_at) / RFU RNFT2 (11725882_a_at) / Fold change /veh RNFT2 (11725882_a_at) / RFU NR4A2 (11747474_a_at) / Fold change /veh NR4A2 (11747474_a_at) / RFU ABCC12 (11746883_a_at) / Fold change /veh ABCC12 (11746883_a_at) / RFU TMEM136 (11760407_x_at) / Fold change /veh TMEM136 (11760407_x_at) / RFU CLDN22 /// WWC2 (11732394_at) / Fold change /veh CLDN22 /// WWC2 (11732394_at) / RFU HLA-DPB1 (11760878_x_at) / Fold change /veh HLA-DPB1 (11760878_x_at) / RFU SPINT1 (11716480_a_at) / Fold change /veh SPINT1 (11716480_a_at) / RFU GAP43 (11754022_s_at) / Fold change /veh GAP43 (11754022_s_at) / RFU A4GNT (11735810_at) / Fold change /veh A4GNT (11735810_at) / RFU PRB3 (11715151_x_at) / Fold change /veh PRB3 (11715151_x_at) / RFU TUBB4B (11761932_at) / Fold change /veh TUBB4B (11761932_at) / RFU CAPN14 (11732068_a_at) / Fold change /veh CAPN14 (11732068_a_at) / RFU TMCC2 (11721928_a_at) / Fold change /veh TMCC2 (11721928_a_at) / RFU IRGQ (11745062_a_at) / Fold change /veh IRGQ (11745062_a_at) / RFU FAM174B (11720279_a_at) / Fold change /veh FAM174B (11720279_a_at) / RFU TMPRSS4 (11748680_a_at) / Fold change /veh TMPRSS4 (11748680_a_at) / RFU FAM212B (11763350_a_at) / Fold change /veh FAM212B (11763350_a_at) / RFU PLEKHG5 (11743358_a_at) / Fold change /veh PLEKHG5 (11743358_a_at) / RFU ZSCAN30 (11745921_a_at) / Fold change /veh ZSCAN30 (11745921_a_at) / RFU CMKLR1 (11741424_a_at) / Fold change /veh CMKLR1 (11741424_a_at) / RFU LOC101060620 /// MAPK8IP1 (11723275_at) / Fold change /veh LOC101060620 /// MAPK8IP1 (11723275_at) / RFU SPTSSB (11747773_x_at) / Fold change /veh SPTSSB (11747773_x_at) / RFU PRSS12 (11739890_at) / Fold change /veh PRSS12 (11739890_at) / RFU BIN1 (11741810_x_at) / Fold change /veh BIN1 (11741810_x_at) / RFU WNT11 (11732464_a_at) / Fold change /veh WNT11 (11732464_a_at) / RFU C10orf10 (11716521_a_at) / Fold change /veh C10orf10 (11716521_a_at) / RFU C5orf56 (11738089_at) / Fold change /veh C5orf56 (11738089_at) / RFU CYB561 (11721691_x_at) / Fold change /veh CYB561 (11721691_x_at) / RFU ANKRD19P (11752326_a_at) / Fold change /veh ANKRD19P (11752326_a_at) / RFU OR2T12 /// OR2T33 /// OR2T8 (11738714_s_at) / Fold change /veh OR2T12 /// OR2T33 /// OR2T8 (11738714_s_at) / RFU VCAN (11748164_a_at) / Fold change /veh VCAN (11748164_a_at) / RFU JSRP1 (11732532_at) / Fold change /veh JSRP1 (11732532_at) / RFU KRTAP10-11 (11738290_x_at) / Fold change /veh KRTAP10-11 (11738290_x_at) / RFU MYO3A (11730013_a_at) / Fold change /veh MYO3A (11730013_a_at) / RFU EBF3 (11725865_a_at) / Fold change /veh EBF3 (11725865_a_at) / RFU CAMK2N1 (11719241_x_at) / Fold change /veh CAMK2N1 (11719241_x_at) / RFU C5orf56 (11738088_a_at) / Fold change /veh C5orf56 (11738088_a_at) / RFU OLFML3 (11715873_a_at) / Fold change /veh OLFML3 (11715873_a_at) / RFU LOC100653217 /// NTM (11731650_a_at) / Fold change /veh LOC100653217 /// NTM (11731650_a_at) / RFU MAPK11 (11762145_a_at) / Fold change /veh MAPK11 (11762145_a_at) / RFU FIZ1 (11724087_x_at) / Fold change /veh FIZ1 (11724087_x_at) / RFU OASL (11726364_x_at) / Fold change /veh OASL (11726364_x_at) / RFU SOX15 (11748057_x_at) / Fold change /veh SOX15 (11748057_x_at) / RFU CD79A (11719716_a_at) / Fold change /veh CD79A (11719716_a_at) / RFU HIST1H1D (11736915_at) / Fold change /veh HIST1H1D (11736915_at) / RFU CASKIN2 (11723855_a_at) / Fold change /veh CASKIN2 (11723855_a_at) / RFU LOC730098 (11760151_x_at) / Fold change /veh LOC730098 (11760151_x_at) / RFU OR4N2 (11742367_at) / Fold change /veh OR4N2 (11742367_at) / RFU PRRT2 (11749266_a_at) / Fold change /veh PRRT2 (11749266_a_at) / RFU SNX32 (11753110_a_at) / Fold change /veh SNX32 (11753110_a_at) / RFU CDHR5 (11726645_a_at) / Fold change /veh CDHR5 (11726645_a_at) / RFU RCAN1 (11760418_a_at) / Fold change /veh RCAN1 (11760418_a_at) / RFU FAM167A (11723789_a_at) / Fold change /veh FAM167A (11723789_a_at) / RFU FAM26E (11764081_at) / Fold change /veh FAM26E (11764081_at) / RFU ISYNA1 (11749810_s_at) / Fold change /veh ISYNA1 (11749810_s_at) / RFU ACY1 (11761880_at) / Fold change /veh ACY1 (11761880_at) / RFU 11764098_at / Fold change /veh 11764098_at / RFU SAMD14 (11745864_x_at) / Fold change /veh SAMD14 (11745864_x_at) / RFU NPB (11741838_a_at) / Fold change /veh NPB (11741838_a_at) / RFU TMPRSS6 (11731388_a_at) / Fold change /veh TMPRSS6 (11731388_a_at) / RFU KRTAP10-2 (11738614_at) / Fold change /veh KRTAP10-2 (11738614_at) / RFU ARHGAP8 /// PRR5-ARHGAP8 (11727945_x_at) / Fold change /veh ARHGAP8 /// PRR5-ARHGAP8 (11727945_x_at) / RFU KRTAP5-7 /// NADSYN1 (11734609_at) / Fold change /veh KRTAP5-7 /// NADSYN1 (11734609_at) / RFU RASL12 (11751679_a_at) / Fold change /veh RASL12 (11751679_a_at) / RFU CDKN2B (11736163_a_at) / Fold change /veh CDKN2B (11736163_a_at) / RFU PRF1 (11729649_at) / Fold change /veh PRF1 (11729649_at) / RFU, ZNF638 /// ZNF638-IT1 / Fold change vs veh, ZNF638 /// ZNF638-IT1 / RFU, PANK3 / Fold change vs veh, PANK3 / RFU, SH3YL1 / Fold change vs veh, SH3YL1 / RFU, ZEB2 / Fold change vs veh, ZEB2 / RFU, NRIP1 / Fold change vs veh, NRIP1 / RFU, PTTG1IP / Fold change vs veh, PTTG1IP / RFU, CAPN2 / Fold change vs veh, CAPN2 / RFU, MED14 / Fold change vs veh, MED14 / RFU, SNORA58 / Fold change vs veh, SNORA58 / RFU, C1orf63 / Fold change vs veh, C1orf63 / RFU, LRRFIP1 / Fold change vs veh, LRRFIP1 / RFU, NDUFAF7 / Fold change vs veh, NDUFAF7 / RFU, SLC12A2 / Fold change vs veh, SLC12A2 / RFU, IBTK / Fold change vs veh, IBTK / RFU, ESF1 / Fold change vs veh, ESF1 / Fold change vs veh, TMEM50B / RFU, TAOK1 / Fold change vs veh, TAOK1 / RFU, ACBD3 / Fold change vs veh, ACBD3 / RFU, TMA16 / Fold change vs veh, TMA16 / RFU, RWDD3 / Fold change vs veh, RWDD3 / RFU, BCAT1 / Fold change vs veh, BCAT1 / RFU, EDEM3 / Fold change vs veh, EDEM3 / RFU, TMEM33 / Fold change vs veh, TMEM33 / RFU, WDR75 / Fold change vs veh, WDR75 / RFU, AHCTF1 / Fold change vs veh, AHCTF1 / RFU, TFRC / Fold change vs veh, TFRC / RFU, ZDHHC17 / Fold change vs veh, ZDHHC17 / RFU, NOM1 / Fold change vs veh, NOM1 / RFU, ARL8B / Fold change vs veh, ARL8B / RFU, ZBTB11 / Fold change vs veh, ZBTB11 / RFU, TAMM41 / Fold change vs veh, TAMM41 / RFU, KIAA1704 /// LOC100996395 / Fold change vs veh, KIAA1704 /// LOC100996395 / RFU, ING1 / Fold change vs veh, ING1 / RFU, TRMT61B / Fold change vs veh, TRMT61B / RFU, FUBP3 / Fold change vs veh, FUBP3 / RFU, TP53 / Fold change vs veh, TP53 / RFU, TNKS2 / Fold change vs veh, TNKS2 / RFU, ZFP14 / Fold change vs veh, ZFP14 / RFU, ACTR2 / Fold change vs veh, ACTR2 / RFU, PPP3R1 / Fold change vs veh, PPP3R1 / RFU, PIK3R1 / Fold change vs veh, PIK3R1 / RFU, HNRNPA1 / Fold change vs veh, HNRNPA1 / RFU, RNF170 / Fold change vs veh, RNF170 / RFU, ZNF28 / Fold change vs veh, ZNF28 / RFU, RNGTT / Fold change vs veh, RNGTT / RFU, OGT / Fold change vs veh, OGT / RFU, BRD1 / Fold change vs veh, BRD1 / RFU, MARS / Fold change vs veh, MARS / RFU, ZNF655 / Fold change vs veh, ZNF655 / RFU, FAHD1 / Fold change vs veh, FAHD1 / RFU, BDP1 / Fold change vs veh, BDP1 / RFU, LRRCC1 / Fold change vs veh, LRRCC1 / RFU, ARID1A / Fold change vs veh, ARID1A / RFU, ZNF146 / Fold change vs veh, ZNF146 / RFU, ZNF330 / Fold change vs veh, ZNF330 / RFU, GPN3 / Fold change vs veh, GPN3 / RFU, C9orf123 / Fold change vs veh, C9orf123 / RFU, N4BP2L2 / Fold change vs veh, N4BP2L2 / RFU, ARFIP1 / Fold change vs veh, ARFIP1 / RFU, FAM179B / Fold change vs veh, FAM179B / RFU, BCL10 / Fold change vs veh, BCL10 / RFU, UHRF1BP1L / Fold change vs veh, UHRF1BP1L / RFU, BET1 / Fold change vs veh, BET1 / RFU, CNOT2 / Fold change vs veh, CNOT2 / RFU, ZNF268 / Fold change vs veh, ZNF268 / Fold change vs veh, ZNF507 / RFU, DGCR2 / Fold change vs veh, DGCR2 / RFU, WDSUB1 / Fold change vs veh, WDSUB1 / Fold change vs veh, HSP90B1 /// MIR3652 / RFU, ADSS / Fold change vs veh, ADSS / RFU, GK / Fold change vs veh, GK / RFU, ZNF148 / Fold change vs veh, ZNF148 / RFU, TAF9 / Fold change vs veh, TAF9 / RFU, SLC1A5 / Fold change vs veh, SLC1A5 / RFU, SLMO2 / Fold change vs veh, SLMO2 / RFU, ABCC4 / Fold change vs veh, ABCC4 / RFU, LOC101060439 /// RAP1B / Fold change vs veh, LOC101060439 /// RAP1B / RFU, RFX7 / Fold change vs veh, RFX7 / RFU, GTPBP10 / Fold change vs veh, GTPBP10 / RFU, CNEP1R1 / Fold change vs veh, CNEP1R1 / RFU, BIVM-ERCC5 /// ERCC5 / Fold change vs veh, BIVM-ERCC5 /// ERCC5 / RFU, ILF3 / Fold change vs veh, ILF3 / RFU 11762660_at / Fold change /veh 11762660_at / RFU VCAN (11757783_s_at) / Fold change /veh VCAN (11757783_s_at) / RFU DDX43 (11728927_at) / Fold change /veh DDX43 (11728927_at) / RFU KRT8 (11758188_x_at) / Fold change /veh KRT8 (11758188_x_at) / RFU NKD1 (11759106_at) / Fold change /veh NKD1 (11759106_at) / RFU SRD5A1 (11742802_a_at) / Fold change /veh SRD5A1 (11742802_a_at) / RFU TPSAB1 /// TPSB2 (11721975_s_at) / Fold change /veh TPSAB1 /// TPSB2 (11721975_s_at) / RFU GSTM3 (11746129_a_at) / Fold change /veh GSTM3 (11746129_a_at) / RFU IL23R (11737362_x_at) / Fold change /veh IL23R (11737362_x_at) / RFU TMEM51 (11727254_a_at) / Fold change /veh TMEM51 (11727254_a_at) / RFU PIWIL2 (11732686_x_at) / Fold change /veh PIWIL2 (11732686_x_at) / RFU ORM1 (11744905_x_at) / Fold change /veh ORM1 (11744905_x_at) / RFU CCDC152 (11743942_at) / Fold change /veh CCDC152 (11743942_at) / RFU ECM1 (11717891_a_at) / Fold change /veh ECM1 (11717891_a_at) / RFU IL23R (11748794_a_at) / Fold change /veh IL23R (11748794_a_at) / RFU TNFAIP8L3 (11732012_x_at) / Fold change /veh TNFAIP8L3 (11732012_x_at) / RFU MBOAT4 (11741988_at) / Fold change /veh MBOAT4 (11741988_at) / RFU 11764193_at / Fold change /veh 11764193_at / RFU TMEM53 (11763286_at) / Fold change /veh TMEM53 (11763286_at) / RFU MAGEB2 (11727129_at) / Fold change /veh MAGEB2 (11727129_at) / RFU TMEM200A (11744735_a_at) / Fold change /veh TMEM200A (11744735_a_at) / RFU CCDC152 (11751479_a_at) / Fold change /veh CCDC152 (11751479_a_at) / RFU FAM211A (11726209_a_at) / Fold change /veh FAM211A (11726209_a_at) / RFU RGS16 (11746705_a_at) / Fold change /veh RGS16 (11746705_a_at) / RFU VCAN (11755009_s_at) / Fold change /veh VCAN (11755009_s_at) / RFU RHOB (11743442_s_at) / Fold change /veh RHOB (11743442_s_at) / RFU RGS16 (11720943_a_at) / Fold change /veh RGS16 (11720943_a_at) / RFU RGS16 (11720944_at) / Fold change /veh RGS16 (11720944_at) / RFU, VPS4B / Fold change vs veh, VPS4B / RFU, CREB1 / Fold change vs veh, CREB1 / RFU, DNAJC13 / Fold change vs veh, DNAJC13 / RFU, GNAQ / Fold change vs veh, GNAQ / RFU, CDK5R1 / Fold change vs veh, CDK5R1 / RFU, ZRANB3 / Fold change vs veh, ZRANB3 / RFU, CUL4A / Fold change vs veh, CUL4A / RFU, CCNY / Fold change vs veh, CCNY / RFU, UFL1 / Fold change vs veh, UFL1 / RFU, COG3 / Fold change vs veh, COG3 / RFU, DIAPH2 / Fold change vs veh, DIAPH2 / RFU, SKA2 / Fold change vs veh, SKA2 / RFU, AFF3 / Fold change vs veh, AFF3 / RFU, LMF1 / Fold change vs veh, LMF1 / RFU, IPO11 / Fold change vs veh, IPO11 / RFU, DFFB / Fold change vs veh, DFFB / RFU, FOXP1 / Fold change vs veh, FOXP1 / RFU, CARD8 / Fold change vs veh, CARD8 / RFU, STRN3 / Fold change vs veh, STRN3 / RFU, ADK / Fold change vs veh, ADK / RFU, RASSF2 / Fold change vs veh, RASSF2 / RFU, WIPF1 / Fold change vs veh, WIPF1 / RFU, LARP1B / Fold change vs veh, LARP1B / RFU, RASA1 / Fold change vs veh, RASA1 / RFU, RB1 / Fold change vs veh, RB1 / RFU, PPFIA1 / Fold change vs veh, PPFIA1 / RFU, MAT2A / Fold change vs veh, MAT2A / RFU, CCT5 / Fold change vs veh, CCT5 / RFU, WDR92 / Fold change vs veh, WDR92 / RFU, CUX1 / Fold change vs veh, CUX1 / RFU, TTC7A / Fold change vs veh, TTC7A / RFU, TMEM135 / Fold change vs veh, TMEM135 / RFU, DEPTOR / Fold change vs veh, DEPTOR / RFU, CPM / Fold change vs veh, CPM / RFU, DNAJB6 / Fold change vs veh, DNAJB6 / RFU, CACNA2D3 / Fold change vs veh, CACNA2D3 / RFU, DTX4 / Fold change vs veh, DTX4 / RFU, TFCP2 / Fold change vs veh, TFCP2 / RFU, GMCL1 /// GMCL1P1 / Fold change vs veh, GMCL1 /// GMCL1P1 / RFU, AEBP2 / Fold change vs veh, AEBP2 / RFU, SNHG1 /// SNORD22 /// SNORD25 /// SNORD26 /// SNORD27 /// SNORD28 /// SNORD29 /// SNORD31 / Fold change vs veh, SNHG1 /// SNORD22 /// SNORD25 /// SNORD26 /// SNORD27 /// SNORD28 /// SNORD29 /// SNORD31 / Fold change (Aza/veh), C12orf56 (ProbeSet 11735607_a_at) / Fold change (ACY-1035/veh), C12orf56 (ProbeSet 11735607_a_at) / Fold change (Aza/veh), FGFR1OP (ProbeSet 11751329_s_at) / Fold change (ACY-1035/veh), FGFR1OP (ProbeSet 11751329_s_at) / Fold change (Aza/veh), VPS36 (ProbeSet 11739960_a_at) / Fold change (ACY-1035/veh), VPS36 (ProbeSet 11739960_a_at) / RFU SYPL1 (11715823_x_at) / Fold change /veh SYPL1 (11715823_x_at) / RFU IGFBP7 (11715501_s_at) / Fold change /veh IGFBP7 (11715501_s_at) / RFU REEP3 (11722064_at) / Fold change /veh REEP3 (11722064_at) / RFU IGLL1 (11728026_x_at) / Fold change /veh IGLL1 (11728026_x_at): dose or concentration left out as unconfirmed
Settings: ProbeSet 11719493_s_at; LIST B

Structure (SMILES): Nc1ccc(-c2cccs2)cc1NC(=O)c1ccc2c(c1)cc(C1CC1)n2CCN1CCOCC1 [ACY-1035]
- RFU, TAF9: 511.51 RFU
